Data from PubChem BioAssay (NCI).
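96-well plates; 48 h exposure; 5 concentrations. Endpoints by linear interpolation between flanking doses. Not reached: highest tested concentration assigned. GI50 = concentration required for 50% inhibition of growth. Definition used: TGI = concentration required for complete inhibition of growth.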

How the values were obtained:
Test in all cases: NCI-60 cell line screen, 48 h
786-0 renal = test system: 786-0 renal
A498 renal = test system: A498 renal
A549 NSCLC = test system: A549 NSCLC
ACHN renal = test system: ACHN renal
BT-549 breast = test system: BT-549 breast
CAKI-1 renal = test system: CAKI-1 renal
CCRF-CEM leukemia = test system: CCRF-CEM leukemia
COLO 205 colon = test system: COLO 205 colon
DU-145 prostate = test system: DU-145 prostate
EKVX NSCLC = test system: EKVX NSCLC
HCC-2998 colon = test system: HCC-2998 colon
HCT-116 colon = test system: HCT-116 colon
HCT-15 colon = test system: HCT-15 colon
HOP-62 NSCLC = test system: HOP-62 NSCLC
HOP-92 NSCLC = test system: HOP-92 NSCLC
HS 578T breast = test system: HS 578T breast
HT29 colon = test system: HT29 colon
IGROV1 ovarian = test system: IGROV1 ovarian
KM12 colon = test system: KM12 colon
LOX IMVI melanoma = test system: LOX IMVI melanoma
M14 melanoma = test system: M14 melanoma
MALME-3M melanoma = test system: MALME-3M melanoma
MCF7 breast = test system: MCF7 breast
MDA-MB-231 breast = test system: MDA-MB-231 breast
MDA-MB-435 = test system: MDA-MB-435
NCI-H226 lung = test system: NCI-H226 lung
NCI-H23 lung = test system: NCI-H23 lung
NCI-H460 lung = test system: NCI-H460 lung
NCI-H522 lung = test system: NCI-H522 lung
NCI/ADR-RES ovarian = test system: NCI/ADR-RES ovarian
OVCAR-3 ovarian = test system: OVCAR-3 ovarian
OVCAR-4 ovarian = test system: OVCAR-4 ovarian
OVCAR-5 ovarian = test system: OVCAR-5 ovarian
OVCAR-8 ovarian = test system: OVCAR-8 ovarian
PC-3 prostate = test system: PC-3 prostate
RPMI-8226 leukemia = test system: RPMI-8226 leukemia
RXF 393 renal = test system: RXF 393 renal
SF-268 CNS = test system: SF-268 CNS
SF-295 CNS = test system: SF-295 CNS
SF-539 CNS = test system: SF-539 CNS
SK-MEL-2 melanoma = test system: SK-MEL-2 melanoma
SK-MEL-28 melanoma = test system: SK-MEL-28 melanoma
SK-MEL-5 melanoma = test system: SK-MEL-5 melanoma
SK-OV-3 ovarian = test system: SK-OV-3 ovarian
SN12C renal = test system: SN12C renal
SNB-19 CNS = test system: SNB-19 CNS
SNB-75 CNS = test system: SNB-75 CNS
SW-620 colon = test system: SW-620 colon
T-47D breast = test system: T-47D breast
U251 CNS = test system: U251 CNS
UACC-257 melanoma = test system: UACC-257 melanoma
UACC-62 melanoma = test system: UACC-62 melanoma
UO-31 renal = test system: UO-31 renal

O=C(/C=C/c1ccncc1)c1cc(Cl)ccc1O
GI50 (786-0 renal): 17.9 µM
TGI (786-0 renal): 34.1 µM
GI50 (A498 renal): 6.96 µM
TGI (A498 renal): 21.8 µM
GI50 (A549 NSCLC): 23 µM
TGI (A549 NSCLC): 53.2 µM
GI50 (ACHN renal): 23.9 µM
TGI (ACHN renal): 60 µM
GI50 (BT-549 breast): 16.6 µM
TGI (BT-549 breast): 31.1 µM
GI50 (CAKI-1 renal): 14.3 µM
TGI (CAKI-1 renal): 38.5 µM
GI50 (CCRF-CEM leukemia): 7.95 µM
TGI (CCRF-CEM leukemia): 36.2 µM
GI50 (COLO 205 colon): 16.8 µM
TGI (COLO 205 colon): 32.3 µM
GI50 (DU-145 prostate): 17.4 µM
TGI (DU-145 prostate): 31.5 µM
GI50 (EKVX NSCLC): 17.2 µM
TGI (EKVX NSCLC): 54.5 µM
GI50 (HCC-2998 colon): 13.5 µM
TGI (HCC-2998 colon): 28.4 µM
GI50 (HCT-116 colon): 14.6 µM
TGI (HCT-116 colon): 27.9 µM
GI50 (HCT-15 colon): 22.4 µM
TGI (HCT-15 colon): 63.8 µM
GI50 (HOP-62 NSCLC): 18.3 µM
TGI (HOP-62 NSCLC): 43.8 µM
GI50 (HOP-92 NSCLC): 4.65 µM
TGI (HOP-92 NSCLC): 19.6 µM
GI50 (HS 578T breast): 39.5 µM
TGI (HS 578T breast): > 100 µM
GI50 (HT29 colon): 14.1 µM
TGI (HT29 colon): 29.7 µM
GI50 (IGROV1 ovarian): 15 µM
TGI (IGROV1 ovarian): 38.5 µM
GI50 (KM12 colon): 15.7 µM
TGI (KM12 colon): 32.5 µM
GI50 (LOX IMVI melanoma): 13.2 µM
TGI (LOX IMVI melanoma): 29.2 µM
GI50 (M14 melanoma): 17.5 µM
TGI (M14 melanoma): 34.1 µM
GI50 (MALME-3M melanoma): 19.7 µM
TGI (MALME-3M melanoma): 45.5 µM
GI50 (MCF7 breast): 13.1 µM
TGI (MCF7 breast): 27.7 µM
GI50 (MDA-MB-231 breast): 18.6 µM
TGI (MDA-MB-231 breast): 42.3 µM
GI50 (MDA-MB-435): 17.1 µM
TGI (MDA-MB-435): 41 µM
GI50 (NCI-H226 lung): 22.7 µM
TGI (NCI-H226 lung): 58 µM
GI50 (NCI-H23 lung): 17.2 µM
TGI (NCI-H23 lung): 38.8 µM
GI50 (NCI-H460 lung): 15.5 µM
TGI (NCI-H460 lung): 34.7 µM
GI50 (NCI-H522 lung): 14.1 µM
TGI (NCI-H522 lung): 29.6 µM
GI50 (NCI/ADR-RES ovarian): 22.7 µM
TGI (NCI/ADR-RES ovarian): 66.4 µM
GI50 (OVCAR-3 ovarian): 17.3 µM
TGI (OVCAR-3 ovarian): 32.9 µM
GI50 (OVCAR-4 ovarian): 27.3 µM
TGI (OVCAR-4 ovarian): 88.1 µM
GI50 (OVCAR-5 ovarian): 24 µM
TGI (OVCAR-5 ovarian): 50.7 µM
GI50 (OVCAR-8 ovarian): 23.6 µM
TGI (OVCAR-8 ovarian): 57 µM
GI50 (PC-3 prostate): 14.8 µM
TGI (PC-3 prostate): 33.6 µM
GI50 (RPMI-8226 leukemia): 2340 nM
TGI (RPMI-8226 leukemia): 5.25 µM
GI50 (RXF 393 renal): 18.3 µM
TGI (RXF 393 renal): 33.1 µM
GI50 (SF-268 CNS): 22.1 µM
TGI (SF-268 CNS): 63.7 µM
GI50 (SF-295 CNS): 15.3 µM
TGI (SF-295 CNS): 34.8 µM
GI50 (SF-539 CNS): 18 µM
TGI (SF-539 CNS): 41.9 µM
GI50 (SK-MEL-2 melanoma): 19.7 µM
TGI (SK-MEL-2 melanoma): 37.8 µM
GI50 (SK-MEL-28 melanoma): 22.6 µM
TGI (SK-MEL-28 melanoma): 47.5 µM
GI50 (SK-MEL-5 melanoma): 19.2 µM
TGI (SK-MEL-5 melanoma): 34.4 µM
GI50 (SK-OV-3 ovarian): 27.4 µM
TGI (SK-OV-3 ovarian): 87.7 µM
GI50 (SN12C renal): 23.4 µM
TGI (SN12C renal): 68.4 µM
GI50 (SNB-19 CNS): 17.7 µM
TGI (SNB-19 CNS): 40.2 µM
GI50 (SNB-75 CNS): 17.5 µM
TGI (SNB-75 CNS): 32.2 µM
GI50 (SW-620 colon): 12.5 µM
TGI (SW-620 colon): 30.5 µM
GI50 (T-47D breast): 18.8 µM
TGI (T-47D breast): 53.1 µM
GI50 (U251 CNS): 12.7 µM
TGI (U251 CNS): 26.2 µM
GI50 (UACC-257 melanoma): 22.2 µM
TGI (UACC-257 melanoma): 49.7 µM
GI50 (UACC-62 melanoma): 15.9 µM
TGI (UACC-62 melanoma): 37.3 µM
GI50 (UO-31 renal): 11 µM
TGI (UO-31 renal): 26.7 µM
